Measurements taken from patent US20240417400A1, “ARYL HYDROCARBON RECEPTOR (AHR) MODULATORS AND THERAPEUTIC USES THEREOF” (GALILEO BIOSYSTEMS, INC., priority 2021, published 2024).

Experiments:
Assay type in all cases: cell-based
human keratinocytes [1] = test: Inflammation of human keratinocytes induced by IL-4, IL-13, IL-22 and IFN-γ: CCL2 release and cell viability; details: IL-4, IL-13, IL-22 and IFN-γ induced, FIGS. 3A, 3B
Description: (§1) Inflammation of human keratinocytes was induced by IL-4, IL-13, IL-22 and IFN-γ. The cells were exposed to Compound 6 or tapiranof and measured for inhibition of CCL2 release and cell viability. FIG. 3A depicts concentration response curves of inhibition of CCL2 release and cell viability for Compound 6. FIG. 3B depicts concentration response curves of inhibition of CCL2 release and cell viability for tapiranof.

human keratinocytes [2] = test: Inflammation of human keratinocytes induced by IL-17 and IFN-α: IL-8 release and cell viability; details: IL-17 and IFN-α induced, FIGS. 4A, 4B
Description: as §1, with “The” for “Inflammation of human keratinocytes was induced by IL-4, IL-13, IL-22 and IFN-γ. The”, “IL-8” for “CCL2”, “4A” for “3A”, “4B” for “3B”

T-cells = test: Inflammation of T-cells induced by CD2, CD3 and CD28: IL-2 and IL-4 release; details: at the highest test concentrations, FIGS. 5A, 5B
Description: as §1, with “T-cells were” for “human keratinocytes was”, “CD2, CD3,” for “IL-4, IL-13, IL-22”, “CD28.” for “IFN-γ.”, “IL-2 and IL-4” for “CCL2”, “5A” for “3A”, “5B” for “3B”

[3] = system: gene expression biomarkers (CYP1A1, CCL17/TARC, CCL26/Eotaxin-3, Filaggrin) in freshly excised healthy human skin; test: Gene expression biomarker activity screen in stimulated human skin explants (RT-qPCR); details: 10 μM in media, harvested 24 hours post stimulation
Experimental: Compound 6 and comparative compound tapinarof are evaluated for their ability to inhibit production of gene expression biomarkers using the biomarkers panel described in the below tables. Each compound is dissolved in DMSO at a dilution volume of 1000× and the resultant solutions are stored at −80° C. Concentrations tested include 1 μM, 5 μM, 10 μM, and 25 μM. Freshly excised healthy human skin is dermatomed to an approximate thickness of 750±100 μm using an Integra® dermatome according to US-SOP-3005 and US-SOP-3006. The dermatomed skin is sectioned into 7 mm biopsies and placed into 6.5 mm permeable membrane Transwell@ inserts with the Stratum corneum side apical and a section of collagen between the basal dermal tissue and the permeable membrane (n=4 per test sample). The Transwell® inserts have an average surface area of approximately 0.33 cm^2 and a volume of 0.5 mL. The basal chambers of the inserts are filled with 0.5 mL of Cornification media and the compound solutions are added to the media to a concentration of 10 μM. The inserts are stored in a humidified incubator overnight at 37° C. for approximately 16 hours. The contents of the basal chambers are vacuum aspirated and replaced with 0.5 mL of pre-warmed (ca. 37° C.) Cornification media containing the compound at a concentration of 10 μM and stimulation cocktail. Tissue explants are harvested at 24 hours post stimulation to measure production of the gene expression biomarkers by quantitative reverse transcription polymerase chain reaction (RT-qPCR). […] The test samples include untreated vehicle (control), TH1 stimulation control, TH2 stimulation control, TH17 stimulation control, tapinarof, and Compound 6.

| Compound | cell viability (human keratinocytes [1]) | inhibition of CCL2 release (human keratinocytes [1]) | inhibition of IL-8 release (human keratinocytes [2]) | inhibition of IL-2 release (T-cells) | inhibition of IL-4 release (T-cells) | production of CYP1A1 (gene expression) ([3]; FIG. 1A) | production of CCL17/TARC (gene expression) ([3]; FIG. 1B) | production of CCL26/Eotaxin-3 (gene expression) ([3]; FIG. 1C) | production of Filaggrin (gene expression) ([3]; FIG. 1D) |
| --- | --- | --- | --- | --- | --- | --- | --- | --- | --- |
| O=c1c2ccccc2nc2n1CCc1c-2[nH]c2ccccc12 [Compound 6] | did not affect cell viability | inhibited release of CCL2 | inhibited release of IL-8 | inhibited release of IL-2 | inhibited | significant induction | reduction/inhibition | reduction/inhibition | significant induction |
| CC(C)c1c(O)cc(/C=C/c2ccccc2)cc1O [tapiranof, tapinarof, reference compound] | inhibition of cell viability at higher concentrations | inhibited release of CCL2 | inhibited release of IL-8 | inhibited release of IL-2 | inhibited | – | – | – | – |
